Biological target: T1, MLLT1 (Homo sapiens, UniProt Q03111)
T1 construct: endogenous in cells; host or cells: MV4-11 (ATCC CRL-9591)
T1 sequence (Q03111 1-559): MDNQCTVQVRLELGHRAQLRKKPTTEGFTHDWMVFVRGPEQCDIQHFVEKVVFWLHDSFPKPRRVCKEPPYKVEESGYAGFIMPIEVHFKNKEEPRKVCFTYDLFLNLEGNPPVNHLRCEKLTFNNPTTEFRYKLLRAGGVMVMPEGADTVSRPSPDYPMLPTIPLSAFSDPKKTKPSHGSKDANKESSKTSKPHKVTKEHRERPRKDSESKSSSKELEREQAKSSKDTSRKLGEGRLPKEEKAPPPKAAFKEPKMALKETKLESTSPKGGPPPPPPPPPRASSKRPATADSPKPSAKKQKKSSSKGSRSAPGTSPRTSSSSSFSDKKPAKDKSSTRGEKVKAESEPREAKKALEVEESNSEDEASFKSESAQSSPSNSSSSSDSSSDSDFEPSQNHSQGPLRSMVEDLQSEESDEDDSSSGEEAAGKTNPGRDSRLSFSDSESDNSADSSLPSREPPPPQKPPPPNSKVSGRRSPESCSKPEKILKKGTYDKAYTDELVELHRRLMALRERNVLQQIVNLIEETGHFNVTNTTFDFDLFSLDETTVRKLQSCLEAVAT
Experiment: MLLT1 Degradation Assay (JESS automated chemiluminescent detection, MV4-11 cells)
Format: cell-based
Settings: 24h, with respect to DMSO control; for MLLT1 % Degradation @ 0.01 µM: 0.01 µM (10 nM) test compound; for MLLT1 % Degradation @ 0.1 µM: 0.1 µM (100 nM) test compound; for MLLT 1 % Degradation @ 1 µM: 1 µM (1000 nM) test compound
Summary of the method: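 MV4-11 cells were treated for 24 h at 37 °C, 5% CO2 with compound at 1000, 100 and 10 nM (0.1% DMSO). MLLT1 was quantified by automated capillary chemiluminescent immunodetection (JESS). Band peak areas were expressed as % degradation relative to DMSO control.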

Row | MLLT1 % Degradation @ 0.01 µM | MLLT1 % Degradation @ 0.1 µM | MLLT 1 % Degradation @ 1 µM | Compound
1 | A (Category A: A ≥ 75% degradation) | A (Category A: A ≥ 75% degradation) | A (Category A: A ≥ 75% degradation) | CN1CCC[C@@H]1c1cc2cnc(NC(=O)c3ccc(CCCCC#Cc4cccc(C(=O)N[C@H]5CCC(=O)NC5=O)n4)cc3)cc2[nH]1 [Example 7, N-((S)-2,6-dioxopiperidin-3-yl)-6-(6-(4-((2-((R)-1-methylpyrrolidin-2-yl)-1H-pyrrolo[3,2-c]pyridin-6-yl)carbamoyl)phenyl)hex-1-yn-1-yl)picolinamide]
2 | A (Category A: A ≥ 75% degradation) | A (Category A: A ≥ 75% degradation) | A (Category A: A ≥ 75% degradation) | CN1CCC[C@@H]1c1cc2cnc(NC(=O)c3ccc(OCC#Cc4cccc5c4CN(C4CCC(=O)NC4=O)C5=O)cc3)cc2[nH]1 (stereo partly drawn) [Example 51, 4-((3-(2-(2,6-dioxopiperidin-3-yl)-1-oxoisoindolin-4-yl)prop-2-yn-1-yl)oxy)-N-(2-((R)-1-methylpyrrolidin-2-yl)-1H-pyrrolo[3,2-c]pyridin-6-yl)benzamide]

Row | Compound | MLLT1 % Degradation @ 0.01 µM | MLLT1 % Degradation @ 0.1 µM | MLLT 1 % Degradation @ 1 µM
3 | CN1CCC[C@@H]1c1cc2cnc(NC(=O)c3ccc(CCCC#Cc4cccc5c4CN(C4CCC(=O)NC4=O)C5=O)nc3)cc2[nH]1 (stereo partly drawn) [Example 12, 6-(5-(2-(2,6-dioxopiperidin-3-yl)-1-oxoisoindolin-4-yl)pent-4-yn-1-yl)-N-(2-((R)-1-methylpyrrolidin-2-yl)-1H-pyrrolo[3,2-c]pyridin-6-yl)nicotinamide] | B (Category B: 50% ≤ B < 75% degradation) | A (Category A: A ≥ 75% degradation) | A (Category A: A ≥ 75% degradation)

From patent publication EP4667467A1, “PROTAC DEGRADERS OF MLLT1 AND/OR MLLT3” (Dark Blue Therapeutics Ltd, priority 2024, dated 2025)
